From paper PMC4914113, “Another look at the mechanism involving trimeric dUTPases in Staphylococcus aureus pathogenicity island induction involves novel players in the party” (Nucleic Acids Research, 2016) come the findings set out here.

In experiment [1] the target is T1, Dut80α (Dubowvirus dv80alpha, UniProt A4ZF98).
T1 construct: His6-tagged from pET-28a, E. coli BL21(DE3); homotrimer; models cover residues 2-168 (dUMP) and 2-170 (G164S)
The experiment in a line: X-ray crystallography. The format is binding. The note with it: 2.33 Å; no nucleotide added to crystallisation; active site.

For the next experiment, the target named is T2, Dutϕ11 (Staphylococcus phage phi 11, UniProt Q8SDV3).
T2 construct: His6-tagged from pET-28a, E. coli BL21(DE3); trimeric Dut
As to the kind of experiment: biolayer interferometry, effect on Stl binding. The note with it: 0.5 mM dUPNPP; SaPIbov1 Stl analyte; pH 7.5, 5 mM MgCl2; competes with Stl.

For experiment [2], the target named is T1, Dut80α. The experiment in a line: biolayer interferometry, effect on Stl binding. Particulars: 0.5 mM dUPNPP; SaPIbov1 Stl analyte; pH 7.5, 5 mM MgCl2; competes with Stl.
Experiment [3] deals with Dut80α^G164S (Staphylococcus aureus phage 80α). As to the kind of experiment: crystal structure; Dut80α^WT with dUMP (5CCO) and Dut80α^G164S with dUPNPP-Mg (5CCT); space group P2_(1)3, one Dut molecule in the final model; trimers shown in Figure 3.
Experiment [4] deals with Dut80α^WT, wild-type dUTPase of phage 80α (Staphylococcus aureus phage 80α). Described as above.

For the compound `O=c1ccn([C@H]2C[C@H](O)[C@@H](COP(=O)(O)O)O2)c(=O)[nH]1` [dUMP], the X-ray crystallography entry on Dut80α [1] is recorded as “structure of the Dut80α^WT bound to the dUMP showed that motif V was ordered”.

As to `O=c1ccn([C@H]2C[C@H](O)[C@@H](COP(=O)(O)NP(=O)(O)OP(=O)(O)O)O2)c(=O)[nH]1` [dUPNPP, 2-Deoxyuridine-5-[(α,β)-imido]triphosphate], the “biolayer interferometry, effect on Stl binding” value on Dutϕ11 was “dUPNPP decreased the affinity of the Stl:Dut80α complex by about one order”; at Dut80α [2], “presence of the dUPNPP severely affects the formation of the Stl:Dut80α complex”.

For Dut80α^G164S (enzyme), the stoichiometry N in experiment [3] is 3.

Regarding “Dut80α^WT, wild-type dUTPase of phage 80α (enzyme)”, in experiment [4], the stoichiometry N is 3.
